Experimental data as given in PubChem BioAssay (NCI).
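Dose response: 5 concentrations. Exposure: 48 h. Format: 96-well plates. Endpoint: linear interpolation; highest concentration if not reached. Here, GI50 denotes the concentration required for 50% inhibition of growth. At the TGI there is no net growth.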

Tests used:
Assay in all cases: NCI anticancer screen, dose series, 48 h
[1] = tested on: M14 melanoma
[2] = tested on: MDA-MB-231 breast
[3] = tested on: SF-268 CNS
[4] = tested on: UACC-62 melanoma
[5] = tested on: SK-MEL-5 melanoma
[6] = tested on: UACC-257 melanoma
[7] = tested on: OVCAR-3 ovarian
[8] = tested on: KM12 colon
[9] = tested on: CAKI-1 renal
[10] = tested on: COLO 205 colon
[11] = tested on: RPMI-8226 leukemia
[12] = tested on: HCT-116 colon
[13] = tested on: BT-549 breast
[14] = tested on: NCI-H23 lung
[15] = tested on: MDA-MB-435
[16] = tested on: HCC-2998 colon
[17] = tested on: SNB-75 CNS
[18] = tested on: HS 578T breast
[19] = tested on: MALME-3M melanoma
[20] = tested on: EKVX NSCLC
[21] = tested on: OVCAR-4 ovarian
[22] = tested on: ACHN renal
[23] = tested on: SW-620 colon
[24] = tested on: SN12C renal
[25] = tested on: OVCAR-5 ovarian
[26] = tested on: SK-OV-3 ovarian
[27] = tested on: NCI-H460 lung
[28] = tested on: SK-MEL-28 melanoma
[29] = tested on: SR leukemia
[30] = tested on: SF-295 CNS
[31] = tested on: TK-10 renal
[32] = tested on: CCRF-CEM leukemia
[33] = tested on: HOP-62 NSCLC
[34] = tested on: HCT-15 colon
[35] = tested on: MOLT-4 leukemia
[36] = tested on: HOP-92 NSCLC
[37] = tested on: OVCAR-8 ovarian
[38] = tested on: SNB-19 CNS
[39] = tested on: 786-0 renal
[40] = tested on: PC-3 prostate
[41] = tested on: DU-145 prostate
[42] = tested on: A549 NSCLC
[43] = tested on: HT29 colon
[44] = tested on: A498 renal
[45] = tested on: LOX IMVI melanoma
[46] = tested on: SF-539 CNS
[47] = tested on: SK-MEL-2 melanoma
[48] = tested on: HL-60(TB) leukemia
[49] = tested on: U251 CNS
[50] = tested on: RXF 393 renal
[51] = tested on: NCI-H522 lung
[52] = tested on: K-562 leukemia
[53] = tested on: UO-31 renal
[54] = tested on: IGROV1 ovarian
[55] = tested on: NCI/ADR-RES ovarian
[56] = tested on: NCI-H226 lung

## O=C1Nc2cc(-c3ccc(NS(=O)(=O)c4ccc(F)c(Cl)c4)cc3)ccc2/C1=C/c1ccc[nH]1
[1]
  GI50: 5.58 µM
  TGI: 27.2 µM
[2]
  GI50: 4.86 µM
  TGI: 21.3 µM
[3]
  GI50: 8.27 µM
  TGI: 29.2 µM
[4]
  GI50: 4.9 µM
  TGI: 27.9 µM
[5]
  GI50: 11.3 µM
  TGI: 35.3 µM
[6]
  GI50: 3.96 µM
  TGI: 21.3 µM
[7]
  GI50: 2.86 µM
  TGI: 17.1 µM
[8]
  GI50: 2.13 µM
  TGI: 7.6 µM
[9]
  GI50: 4.63 µM
  TGI: 18.6 µM
[10]
  GI50: 5.07 µM
  TGI: 18.9 µM
[11]
  GI50: 2.6 µM
  TGI: 21.9 µM
[12]
  GI50: 3.57 µM
  TGI: 33.3 µM
[13]
  GI50: 4 µM
  TGI: 26.3 µM
[14]
  GI50: 0.533 µM
  TGI: 8.49 µM
[15]
  GI50: 6.52 µM
  TGI: 25.8 µM
[16]
  GI50: 3.23 µM
  TGI: 20.4 µM
[17]
  GI50: 0.95 µM
  TGI: 14.4 µM
[18]
  GI50: 2.96 µM
  TGI: 19.2 µM
[19]
  GI50: 10.5 µM
  TGI: 23.2 µM
[20]
  GI50: 0.0918 µM
  TGI: 15.9 µM
[21]
  GI50: 2 µM
  TGI: 18.8 µM
[22]
  GI50: 3.52 µM
  TGI: 14.6 µM
[23]
  GI50: 3.46 µM
  TGI: 17 µM
[24]
  GI50: 11.8 µM
  TGI: 31 µM
[25]
  GI50: 3.53 µM
  TGI: 19.4 µM
[26]
  GI50: 4.07 µM
  TGI: 29.7 µM
[27]
  GI50: 0.393 µM
  TGI: 1.98 µM
[28]
  GI50: 6.91 µM
  TGI: 29.2 µM
[29]
  GI50: 2.2 µM
  TGI: 17.6 µM
[30]
  GI50: 4.68 µM
  TGI: 23.2 µM
[31]
  GI50: 5.8 µM
  TGI: 25.8 µM
[32]
  GI50: 3.28 µM
  TGI: 18.9 µM
[33]
  GI50: 10.3 µM
  TGI: 26.3 µM
[34]
  GI50: 3.46 µM
  TGI: 17.6 µM
[35]
  GI50: 2.33 µM
  TGI: 16.1 µM
[36]
  GI50: 4.68 µM
  TGI: 20.3 µM
[37]
  GI50: 12.3 µM
  TGI: 32.1 µM
[38]
  GI50: 13.7 µM
  TGI: 35.5 µM
[39]
  GI50: 5.54 µM
  TGI: 27 µM
[40]
  GI50: 3.11 µM
  TGI: 18 µM
[41]
  GI50: 3.74 µM
  TGI: 15.2 µM
[42]
  GI50: 2.35 µM
  TGI: 16.8 µM
[43]
  GI50: 3.31 µM
  TGI: 17.8 µM
[44]
  GI50: 1.93 µM
  TGI: 15.5 µM
[45]
  GI50: 3.78 µM
  TGI: 16.2 µM
[46]
  GI50: 2.67 µM
  TGI: 14.9 µM
[47]
  GI50: 18.2 µM
  TGI: > 100 µM
[48]
  GI50: 3.34 µM
  TGI: 30.4 µM
[49]
  GI50: 11.5 µM
  TGI: 26.1 µM
[50]
  GI50: 3.12 µM
  TGI: 16.6 µM
[51]
  GI50: 4.19 µM
  TGI: 22.4 µM
[52]
  GI50: 3.79 µM
  TGI: > 100 µM
[53]
  GI50: 3.22 µM
  TGI: 21 µM
[54]
  GI50: 11.4 µM
  TGI: 39.9 µM
[55]
  GI50: 7.98 µM
  TGI: 29.9 µM
[56]
  GI50: 3.86 µM
  TGI: 26.1 µM
